Measurements taken from publication PMC6409085, “Three odorant-binding proteins are involved in the behavioral response of Sogatella furcifera to rice plant volatiles” (PeerJ, 2019).
Several values for one entry are separate records, joined by “and”; a condition that tells them apart may be missing. Equal entries are not always repeated.

Experiments:
Experiment in all cases: biochemical
Format in all cases: binding
SfurOBP1 = SfurOBP1 (Sogatella furcifera, UniProt V5T8N5); conditions: for Fluorescence competitive binding assay, fluorescence intensity: OBP1, three replicate columns
SfurOBP1, sequence (V5T8N5 entry or part of it): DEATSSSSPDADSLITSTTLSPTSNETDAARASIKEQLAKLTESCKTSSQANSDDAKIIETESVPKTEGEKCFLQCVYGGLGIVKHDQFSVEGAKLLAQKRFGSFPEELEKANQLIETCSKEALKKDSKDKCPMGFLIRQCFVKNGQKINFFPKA
In short: (§1)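 K1-NPN came from titrating 2.0 µM protein (50 mM Tris-HCl, pH 7.4) with 1-NPN. Odorants at 2-20 µM then competed against 2.0 µM protein plus 2.0 µM 1-NPN for 2 min, with excitation at 337 nm and emission recorded over 390-490 nm. IC50 values were converted to Ki via Ki = IC50/(1 + [1-NPN]/K1-NPN).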

SfurOBP3 = SfurOBP3 (Sogatella furcifera, UniProt V5T818); conditions: for Fluorescence competitive binding assay, fluorescence intensity: OBP3, three replicate columns
SfurOBP3, sequence (V5T818 entry or part of it): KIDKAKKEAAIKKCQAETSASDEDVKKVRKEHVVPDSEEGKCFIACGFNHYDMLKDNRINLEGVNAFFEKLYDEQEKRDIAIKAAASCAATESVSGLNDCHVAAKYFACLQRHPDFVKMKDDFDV
In short: as §1

SfurOBP2 = SfurOBP2 (Sogatella furcifera, UniProt V5T759)
SfurOBP2, sequence (V5T759 entry or part of it): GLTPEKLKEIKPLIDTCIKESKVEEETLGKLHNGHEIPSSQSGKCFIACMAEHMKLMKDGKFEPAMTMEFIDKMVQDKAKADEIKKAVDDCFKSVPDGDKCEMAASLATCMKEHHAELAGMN
In short: as §1

SfurOBP11 = SfurOBP11 (Sogatella furcifera, UniProt V5T6E3)
SfurOBP11, sequence (V5T6E3 entry or part of it): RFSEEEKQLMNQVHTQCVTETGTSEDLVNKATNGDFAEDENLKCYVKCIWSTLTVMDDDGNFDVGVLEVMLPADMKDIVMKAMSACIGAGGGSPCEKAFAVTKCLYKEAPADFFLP
In short: as §1

## CCCCCCCCCCCCCCCCCC [n-octadecane]
SfurOBP1; ligand concentration 2 (μM)
  Fluorescence competitive binding assay, fluorescence intensity: 9199 and 7453 and 7122
SfurOBP1; ligand concentration 4 (μM)
  Fluorescence competitive binding assay, fluorescence intensity: 8077 and 8108 and 9442
SfurOBP1; ligand concentration 6 (μM)
  Fluorescence competitive binding assay, fluorescence intensity: 8157 and 9511 and 12800
SfurOBP1; ligand concentration 8 (μM)
  Fluorescence competitive binding assay, fluorescence intensity: 8086 and 8235 and 10013
SfurOBP1; ligand concentration 10 (μM)
  Fluorescence competitive binding assay, fluorescence intensity: 9302 and 9657 and 9738
SfurOBP1; ligand concentration 12 (μM)
  Fluorescence competitive binding assay, fluorescence intensity: 8567 and 10513 and 8676
SfurOBP1; ligand concentration 14 (μM)
  Fluorescence competitive binding assay, fluorescence intensity: 10345 and 9766 and 9261
SfurOBP1; ligand concentration 16 (μM)
  Fluorescence competitive binding assay, fluorescence intensity: 9156 and 9816 and 8326
SfurOBP1; ligand concentration 18 (μM)
  Fluorescence competitive binding assay, fluorescence intensity: 11251 and 11486 and 11859
SfurOBP1; ligand concentration 20 (μM)
  Fluorescence competitive binding assay, fluorescence intensity: 12749 and 11193 and 9024
SfurOBP1; SfurOBP1, protein and 1-NPN both 2.0 µM, competitor 2-20 µM, read-out: IC50
  IC50: > 20 µM
SfurOBP3; ligand concentration 2
  Fluorescence competitive binding assay, fluorescence intensity: 44756 and 46756 and 45756
SfurOBP3; ligand concentration 4
  Fluorescence competitive binding assay, fluorescence intensity: 44765 and 44970 and 45189
SfurOBP3; ligand concentration 6
  Fluorescence competitive binding assay, fluorescence intensity: 56655 and 51780 and 54218
SfurOBP3; ligand concentration 8
  Fluorescence competitive binding assay, fluorescence intensity: 56206 and 55200 and 54212
SfurOBP3; ligand concentration 10
  Fluorescence competitive binding assay, fluorescence intensity: 105189 and 108079 and 109909
SfurOBP3; ligand concentration 12
  Fluorescence competitive binding assay, fluorescence intensity: 109051 and 110510 and 104814
SfurOBP3; ligand concentration 14
  Fluorescence competitive binding assay, fluorescence intensity: 104242 and 103301 and 109995
SfurOBP3; ligand concentration 16
  Fluorescence competitive binding assay, fluorescence intensity: 96286 and 114978 and 85581
SfurOBP3; ligand concentration 18
  Fluorescence competitive binding assay, fluorescence intensity: 113407 and 123942 and 62401
SfurOBP3; ligand concentration 20
  Fluorescence competitive binding assay, fluorescence intensity: 54560 and 56227 and 56504
SfurOBP3; SfurOBP3, protein and 1-NPN both 2.0 µM, competitor 2-20 µM, read-out: IC50
  IC50: > 20 µM
SfurOBP2; SfurOBP2, protein and 1-NPN both 2.0 µM, competitor 2-20 µM, read-out: IC50
  IC50: > 20 µM
SfurOBP2; ligand concentration 2 (unit not given), replicate column 1 of 3
  Fluorescence competitive binding assay, OBP2 (raw fluorescence reading): 22088
SfurOBP2; ligand concentration 2 (unit not given), replicate column 2 of 3
  Fluorescence competitive binding assay, OBP2 (raw fluorescence reading): 18683
SfurOBP2; ligand concentration 2 (unit not given), replicate column 3 of 3
  Fluorescence competitive binding assay, OBP2 (raw fluorescence reading): 19796
SfurOBP2; ligand concentration 4 (unit not given), replicate column 1 of 3
  Fluorescence competitive binding assay, OBP2 (raw fluorescence reading): 22227
SfurOBP2; ligand concentration 4 (unit not given), replicate column 2 of 3
  Fluorescence competitive binding assay, OBP2 (raw fluorescence reading): 21034
SfurOBP2; ligand concentration 4 (unit not given), replicate column 3 of 3
  Fluorescence competitive binding assay, OBP2 (raw fluorescence reading): 22529
SfurOBP2; ligand concentration 6 (unit not given), replicate column 1 of 3
  Fluorescence competitive binding assay, OBP2 (raw fluorescence reading): 22620
SfurOBP2; ligand concentration 6 (unit not given), replicate column 2 of 3
  Fluorescence competitive binding assay, OBP2 (raw fluorescence reading): 20809
SfurOBP2; ligand concentration 6 (unit not given), replicate column 3 of 3
  Fluorescence competitive binding assay, OBP2 (raw fluorescence reading): 24859
SfurOBP2; ligand concentration 8 (unit not given), replicate column 1 of 3
  Fluorescence competitive binding assay, OBP2 (raw fluorescence reading): 22235
SfurOBP2; ligand concentration 8 (unit not given), replicate column 2 of 3
  Fluorescence competitive binding assay, OBP2 (raw fluorescence reading): 21135
SfurOBP2; ligand concentration 8 (unit not given), replicate column 3 of 3
  Fluorescence competitive binding assay, OBP2 (raw fluorescence reading): 22654
SfurOBP2; ligand concentration 10 (unit not given), replicate column 1 of 3
  Fluorescence competitive binding assay, OBP2 (raw fluorescence reading): 23550
SfurOBP2; ligand concentration 10 (unit not given), replicate column 2 of 3
  Fluorescence competitive binding assay, OBP2 (raw fluorescence reading): 22474
SfurOBP2; ligand concentration 10 (unit not given), replicate column 3 of 3
  Fluorescence competitive binding assay, OBP2 (raw fluorescence reading): 20461
SfurOBP2; ligand concentration 12 (unit not given), replicate column 1 of 3
  Fluorescence competitive binding assay, OBP2 (raw fluorescence reading): 24276
SfurOBP2; ligand concentration 12 (unit not given), replicate column 2 of 3
  Fluorescence competitive binding assay, OBP2 (raw fluorescence reading): 21111
SfurOBP2; ligand concentration 12 (unit not given), replicate column 3 of 3
  Fluorescence competitive binding assay, OBP2 (raw fluorescence reading): 21373
SfurOBP2; ligand concentration 14 (unit not given), replicate column 1 of 3
  Fluorescence competitive binding assay, OBP2 (raw fluorescence reading): 23028
SfurOBP2; ligand concentration 14 (unit not given), replicate column 2 of 3
  Fluorescence competitive binding assay, OBP2 (raw fluorescence reading): 21327
SfurOBP2; ligand concentration 14 (unit not given), replicate column 3 of 3
  Fluorescence competitive binding assay, OBP2 (raw fluorescence reading): 21239
SfurOBP2; ligand concentration 16 (unit not given), replicate column 1 of 3
  Fluorescence competitive binding assay, OBP2 (raw fluorescence reading): 18660
SfurOBP2; ligand concentration 16 (unit not given), replicate column 2 of 3
  Fluorescence competitive binding assay, OBP2 (raw fluorescence reading): 19708
SfurOBP2; ligand concentration 16 (unit not given), replicate column 3 of 3
  Fluorescence competitive binding assay, OBP2 (raw fluorescence reading): 19350
SfurOBP2; ligand concentration 18 (unit not given), replicate column 1 of 3
  Fluorescence competitive binding assay, OBP2 (raw fluorescence reading): 24040
SfurOBP2; ligand concentration 18 (unit not given), replicate column 2 of 3
  Fluorescence competitive binding assay, OBP2 (raw fluorescence reading): 25474
SfurOBP2; ligand concentration 18 (unit not given), replicate column 3 of 3
  Fluorescence competitive binding assay, OBP2 (raw fluorescence reading): 26650
SfurOBP2; ligand concentration 20 (unit not given), replicate column 1 of 3
  Fluorescence competitive binding assay, OBP2 (raw fluorescence reading): 24631
SfurOBP2; ligand concentration 20 (unit not given), replicate column 2 of 3
  Fluorescence competitive binding assay, OBP2 (raw fluorescence reading): 21130
SfurOBP2; ligand concentration 20 (unit not given), replicate column 3 of 3
  Fluorescence competitive binding assay, OBP2 (raw fluorescence reading): 21384
SfurOBP11; SfurOBP11, protein and 1-NPN both 2.0 µM, competitor 2-20 µM, read-out: IC50
  IC50: > 20 µM
SfurOBP11; ligand concentration 2, replicate 1
  Fluorescence intensity, fluorescence competitive binding assay, OBP11: 31124
SfurOBP11; ligand concentration 2, replicate 2
  Fluorescence intensity, fluorescence competitive binding assay, OBP11: 31165
SfurOBP11; ligand concentration 2, replicate 3
  Fluorescence intensity, fluorescence competitive binding assay, OBP11: 31082
SfurOBP11; ligand concentration 4, replicate 1
  Fluorescence intensity, fluorescence competitive binding assay, OBP11: 31010
SfurOBP11; ligand concentration 4, replicate 2
  Fluorescence intensity, fluorescence competitive binding assay, OBP11: 31130
SfurOBP11; ligand concentration 4, replicate 3
  Fluorescence intensity, fluorescence competitive binding assay, OBP11: 30899
SfurOBP11; ligand concentration 6, replicate 1
  Fluorescence intensity, fluorescence competitive binding assay, OBP11: 26414
SfurOBP11; ligand concentration 6, replicate 2
  Fluorescence intensity, fluorescence competitive binding assay, OBP11: 32905
SfurOBP11; ligand concentration 6, replicate 3
  Fluorescence intensity, fluorescence competitive binding assay, OBP11: 29894
SfurOBP11; ligand concentration 8, replicate 1
  Fluorescence intensity, fluorescence competitive binding assay, OBP11: 27729
SfurOBP11; ligand concentration 8, replicate 2
  Fluorescence intensity, fluorescence competitive binding assay, OBP11: 29971
SfurOBP11; ligand concentration 8, replicate 3
  Fluorescence intensity, fluorescence competitive binding assay, OBP11: 31279
SfurOBP11; ligand concentration 10, replicate 1
  Fluorescence intensity, fluorescence competitive binding assay, OBP11: 29221
SfurOBP11; ligand concentration 10, replicate 2
  Fluorescence intensity, fluorescence competitive binding assay, OBP11: 29436
SfurOBP11; ligand concentration 10, replicate 3
  Fluorescence intensity, fluorescence competitive binding assay, OBP11: 31039
SfurOBP11; ligand concentration 12, replicate 1
  Fluorescence intensity, fluorescence competitive binding assay, OBP11: 26981
SfurOBP11; ligand concentration 12, replicate 2
  Fluorescence intensity, fluorescence competitive binding assay, OBP11: 32241
SfurOBP11; ligand concentration 12, replicate 3
  Fluorescence intensity, fluorescence competitive binding assay, OBP11: 28868
SfurOBP11; ligand concentration 14, replicate 1
  Fluorescence intensity, fluorescence competitive binding assay, OBP11: 27521
SfurOBP11; ligand concentration 14, replicate 2
  Fluorescence intensity, fluorescence competitive binding assay, OBP11: 30203
SfurOBP11; ligand concentration 14, replicate 3
  Fluorescence intensity, fluorescence competitive binding assay, OBP11: 30415
SfurOBP11; ligand concentration 16, replicate 1
  Fluorescence intensity, fluorescence competitive binding assay, OBP11: 28709
SfurOBP11; ligand concentration 16, replicate 2
  Fluorescence intensity, fluorescence competitive binding assay, OBP11: 28254
SfurOBP11; ligand concentration 16, replicate 3
  Fluorescence intensity, fluorescence competitive binding assay, OBP11: 29164
SfurOBP11; ligand concentration 18, replicate 1
  Fluorescence intensity, fluorescence competitive binding assay, OBP11: 29699
SfurOBP11; ligand concentration 18, replicate 2
  Fluorescence intensity, fluorescence competitive binding assay, OBP11: 28164
SfurOBP11; ligand concentration 18, replicate 3
  Fluorescence intensity, fluorescence competitive binding assay, OBP11: 26628
SfurOBP11; ligand concentration 20, replicate 1
  Fluorescence intensity, fluorescence competitive binding assay, OBP11: 26046
SfurOBP11; ligand concentration 20, replicate 2
  Fluorescence intensity, fluorescence competitive binding assay, OBP11: 24149
SfurOBP11; ligand concentration 20, replicate 3
  Fluorescence intensity, fluorescence competitive binding assay, OBP11: 23426
